# Measured values published in publication PMC9250534, “Synthesis and direct assay of large macrocycle diversities by combinatorial late-stage modification at picomole scale” (Nature Communications, 2022).
# Biological target: MDM2 (Homo sapiens, UniProt Q00987)
# Assay: MDM2 binding screen of Libraries 3 and 4: displacement of fluorescent probe F-M8 at 750 nM macrocycle
# Conditions: Panel b, Library 3: 63 scaffolds combinatorially acylated with 15 carboxylic acids at 30 picomole scale; displacement of fluorescent peptide probe; macrocycle 750 nM
# In short: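 Cyclic peptide scaffolds were acylated in DMSO with carboxylic acids (20 equiv.), HBTU and DABCO for 6 h at room temperature. Reactions were quenched overnight in 100 mM Tris-Cl pH 7.4, 0.01% Tween20. The fluorescein conjugate was also competed with nutlin-3a.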
# Sequence of MDM2 (Q00987 whole entry): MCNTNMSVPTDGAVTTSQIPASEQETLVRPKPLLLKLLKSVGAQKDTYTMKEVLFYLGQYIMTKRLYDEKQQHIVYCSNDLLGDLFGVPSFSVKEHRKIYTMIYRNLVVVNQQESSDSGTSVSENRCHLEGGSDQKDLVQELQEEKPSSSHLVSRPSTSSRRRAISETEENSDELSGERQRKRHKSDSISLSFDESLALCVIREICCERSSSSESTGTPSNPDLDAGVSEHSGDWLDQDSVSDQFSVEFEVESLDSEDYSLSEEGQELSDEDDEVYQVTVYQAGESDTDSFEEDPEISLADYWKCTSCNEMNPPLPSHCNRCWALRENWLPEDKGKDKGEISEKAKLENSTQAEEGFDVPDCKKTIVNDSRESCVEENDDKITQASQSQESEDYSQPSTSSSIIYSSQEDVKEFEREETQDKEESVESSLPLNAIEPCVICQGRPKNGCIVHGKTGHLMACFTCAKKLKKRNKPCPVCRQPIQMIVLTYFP
row,fraction of fluorescent probe displaced,Structure (SMILES)
1,0.028,O=C(CCS(=O)(=O)c1ccccc1)NCCN1CC(=O)N[C@@H](Cc2ccc3ccccc3c2)C(=O)NCCSSCCC(=O)NCC2(CC2)C1=O [X-Amcp-N-Aeg-2-Nal + Acid 114]
2,-0.025,O=C1CCSSCCNC(=O)[C@H](Cc2c[nH]c3cc(Cl)ccc23)NC(=O)CN(CCNC(=O)c2ccc(Cl)cc2)C(=O)C2(CC2)CN1 [X-Amcp-N-Aeg-Cl-Trp + Acid 25]
3,0.015,O=C(/C=C/c1ccc(OCc2ccccc2)cc1)NCCN1CC(=O)N[C@@H](Cc2c[nH]c3cc(Cl)ccc23)C(=O)NCCSSCCC(=O)NCC2(CC2)C1=O [X-Amcp-N-Aeg-Cl-Trp + Acid 110]
4,-0.00533,O=C1CCSSCCNC(=O)[C@H](Cc2c[nH]c3cc(Cl)ccc23)NC(=O)CN(CCNC(=O)c2cccc(Oc3ccccc3)c2)C(=O)C2(CC2)CN1 [X-Amcp-N-Aeg-Cl-Trp + Acid 111]
5,-0.019,O=C(/C=C/c1ccc2ccccc2c1)NCCN1CC(=O)N[C@@H](Cc2c[nH]c3cc(Cl)ccc23)C(=O)NCCSSCCC(=O)NCC2(CC2)C1=O [X-Amcp-N-Aeg-Cl-Trp + Acid 112]
6,-0.00533,O=C(CCS(=O)(=O)c1ccccc1)NCCN1CC(=O)N[C@@H](Cc2c[nH]c3cc(Cl)ccc23)C(=O)NCCSSCCC(=O)NCC2(CC2)C1=O [X-Amcp-N-Aeg-Cl-Trp + Acid 114]
7,0.00133,O=C1CCSSCCNC(=O)[C@H](Cc2c[nH]c3cc(Cl)ccc23)NC(=O)CN(CCNC(=O)C2COc3ccccc3O2)C(=O)C2(CC2)CN1 (stereo partly shown) [X-Amcp-N-Aeg-Cl-Trp + Acid 115]
8,0.035,O=C(/C=C/c1ccc(Cl)cc1)NCCN1CC(=O)N[C@H](Cc2c[nH]c3ccccc23)C(=O)NCCSSCCC(=O)NCC2(CC2)C1=O [X-Amcp-N-Aeg-D-Trp + Acid 108]
9,0.015,O=C(/C=C/c1ccc(OCc2ccccc2)cc1)NCCN1CC(=O)N[C@H](Cc2c[nH]c3ccccc23)C(=O)NCCSSCCC(=O)NCC2(CC2)C1=O [X-Amcp-N-Aeg-D-Trp + Acid 110]
10,0.008,O=C1CCSSCCNC(=O)[C@@H](Cc2c[nH]c3ccccc23)NC(=O)CN(CCNC(=O)c2cccc(Oc3ccccc3)c2)C(=O)C2(CC2)CN1 [X-Amcp-N-Aeg-D-Trp + Acid 111]
11,0.008,O=C(/C=C/c1ccc2ccccc2c1)NCCN1CC(=O)N[C@H](Cc2c[nH]c3ccccc23)C(=O)NCCSSCCC(=O)NCC2(CC2)C1=O [X-Amcp-N-Aeg-D-Trp + Acid 112]
12,0.00133,CC(Oc1cccc(Cl)c1)C(=O)NCCN1CC(=O)N[C@H](Cc2c[nH]c3ccccc23)C(=O)NCCSSCCC(=O)NCC2(CC2)C1=O (stereo partly drawn) [X-Amcp-N-Aeg-D-Trp + Acid 113]
13,0.055,O=C(CCS(=O)(=O)c1ccccc1)NCCN1CC(=O)N[C@H](Cc2c[nH]c3ccccc23)C(=O)NCCSSCCC(=O)NCC2(CC2)C1=O [X-Amcp-N-Aeg-D-Trp + Acid 114]
14,0.048,O=C1CCSSCCNC(=O)[C@@H](Cc2c[nH]c3ccccc23)NC(=O)CN(CCNC(=O)C2COc3ccccc3O2)C(=O)C2(CC2)CN1 (stereo partly drawn) [X-Amcp-N-Aeg-D-Trp + Acid 115]
15,-0.00533,Cn1cc(C[C@@H]2NC(=O)CN(CCNC(=O)c3ccc(Cl)s3)C(=O)C3(CC3)CNC(=O)CCSSCCNC2=O)c2ccccc21 [X-Amcp-N-Aeg-Me-Trp + Acid 14]
16,-0.012,Cn1cc(C[C@@H]2NC(=O)CN(CCNC(=O)c3ccc(Cl)cc3)C(=O)C3(CC3)CNC(=O)CCSSCCNC2=O)c2ccccc21 [X-Amcp-N-Aeg-Me-Trp + Acid 25]
17,-0.002,Cn1cc(C[C@@H]2NC(=O)CN(CCNC(=O)c3ccc4ccccc4c3)C(=O)C3(CC3)CNC(=O)CCSSCCNC2=O)c2ccccc21 [X-Amcp-N-Aeg-Me-Trp + Acid 107]
18,0.015,Cn1cc(C[C@@H]2NC(=O)CN(CCNC(=O)/C=C/c3ccc(OCc4ccccc4)cc3)C(=O)C3(CC3)CNC(=O)CCSSCCNC2=O)c2ccccc21 [X-Amcp-N-Aeg-Me-Trp + Acid 110]
19,0.015,Cn1cc(C[C@@H]2NC(=O)CN(CCNC(=O)c3cccc(Oc4ccccc4)c3)C(=O)C3(CC3)CNC(=O)CCSSCCNC2=O)c2ccccc21 [X-Amcp-N-Aeg-Me-Trp + Acid 111]
20,0.028,Cn1cc(C[C@@H]2NC(=O)CN(CCNC(=O)/C=C/c3ccc4ccccc4c3)C(=O)C3(CC3)CNC(=O)CCSSCCNC2=O)c2ccccc21 [X-Amcp-N-Aeg-Me-Trp + Acid 112]
21,-0.012,CN1C(=O)CN(CCNC(=O)c2ccc(Cl)s2)C(=O)C2(CC2)CNC(=O)CCSSCCNC(=O)[C@@H]1Cc1c[nH]c2ccccc12 [X-Amcp-N-Aeg-NMe-Trp + Acid 14]
22,-0.012,CN1C(=O)CN(CCNC(=O)c2ccc(Cl)cc2)C(=O)C2(CC2)CNC(=O)CCSSCCNC(=O)[C@@H]1Cc1c[nH]c2ccccc12 [X-Amcp-N-Aeg-NMe-Trp + Acid 25]

row,fraction of fluorescent probe displaced,Structure (SMILES)
1,0.031,CN1C(=O)CN(CCNC(=O)c2ccc3ccccc3c2)C(=O)C2(CC2)CNC(=O)CCSSCCNC(=O)[C@@H]1Cc1c[nH]c2ccccc12 [X-Amcp-N-Aeg-NMe-Trp + Acid 107]
2,-0.00533,CN1C(=O)CN(CCNC(=O)/C=C/c2ccc(OCc3ccccc3)cc2)C(=O)C2(CC2)CNC(=O)CCSSCCNC(=O)[C@@H]1Cc1c[nH]c2ccccc12 [X-Amcp-N-Aeg-NMe-Trp + Acid 110]
3,0.00133,CN1C(=O)CN(CCNC(=O)c2cccc(Oc3ccccc3)c2)C(=O)C2(CC2)CNC(=O)CCSSCCNC(=O)[C@@H]1Cc1c[nH]c2ccccc12 [X-Amcp-N-Aeg-NMe-Trp + Acid 111]
4,-0.019,CN1C(=O)CN(CCNC(=O)/C=C/c2ccc3ccccc3c2)C(=O)C2(CC2)CNC(=O)CCSSCCNC(=O)[C@@H]1Cc1c[nH]c2ccccc12 [X-Amcp-N-Aeg-NMe-Trp + Acid 112]
5,0.00133,O=C1CCSSCCNC(=O)[C@H](Cc2c[nH]c3ccccc23)NC(=O)CN(CCNC(=O)c2ccc(Cl)cc2)C(=O)C2(CC2)CN1 [X-Amcp-N-Aeg-Trp + Acid 25]
6,-0.015,O=C1CCSSCCNC(=O)C(Cc2c[nH]c3ccccc23)NC(=O)CN(CCNC(=O)C2CC2c2ccccc2)C(=O)C2(CC2)CN1 (stereo not shown) [X-Amcp-N-Aeg-Trp + Acid 105]
7,0.018,O=C1CCSSCCNC(=O)[C@H](Cc2c[nH]c3ccccc23)NC(=O)CN(CCNC(=O)c2ccc3ccccc3c2)C(=O)C2(CC2)CN1 [X-Amcp-N-Aeg-Trp + Acid 107]
8,0.015,O=C(/C=C/c1ccc(OCc2ccccc2)cc1)NCCN1CC(=O)N[C@@H](Cc2c[nH]c3ccccc23)C(=O)NCCSSCCC(=O)NCC2(CC2)C1=O [X-Amcp-N-Aeg-Trp + Acid 110]
9,0.041,O=C(/C=C/c1ccc2ccccc2c1)NCCN1CC(=O)N[C@@H](Cc2c[nH]c3ccccc23)C(=O)NCCSSCCC(=O)NCC2(CC2)C1=O [X-Amcp-N-Aeg-Trp + Acid 112]
10,0.035,CC(Oc1cccc(Cl)c1)C(=O)NCCN1CC(=O)N[C@@H](Cc2c[nH]c3ccccc23)C(=O)NCCSSCCC(=O)NCC2(CC2)C1=O (stereo partly shown) [X-Amcp-N-Aeg-Trp + Acid 113]
11,0.021,O=C(CCS(=O)(=O)c1ccccc1)NCCN1CC(=O)N[C@@H](Cc2c[nH]c3ccccc23)C(=O)NCCSSCCC(=O)NCC2(CC2)C1=O [X-Amcp-N-Aeg-Trp + Acid 114]
12,0.028,O=C(/C=C/c1ccc(Cl)cc1)NC[C@H]1NC(=O)[C@@H]2CN(CCO2)C(=O)CCSSCCNC(=O)[C@H](Cc2cccc3ccccc23)NC1=O [X-Cop-D-Dap-1-NaI + Acid 108]
13,0.048,O=C(/C=C/c1ccc(OCc2ccccc2)cc1)NC[C@H]1NC(=O)[C@@H]2CN(CCO2)C(=O)CCSSCCNC(=O)[C@H](Cc2cccc3ccccc23)NC1=O [X-Cop-D-Dap-1-NaI + Acid 110]
14,0.008,O=C(NCC1NC(=O)C2CN(CCO2)C(=O)CCSSCCNC(=O)C(Cc2cccc3ccccc23)NC1=O)c1cccc(Oc2ccccc2)c1 [X-Cop-D-Dap-1-NaI + Acid 111]
15,0.008,CC(Oc1cccc(Cl)c1)C(=O)NC[C@H]1NC(=O)[C@@H]2CN(CCO2)C(=O)CCSSCCNC(=O)[C@H](Cc2cccc3ccccc23)NC1=O (stereo partly drawn) [X-Cop-D-Dap-1-NaI + Acid 113]
16,0.008,O=C(CCS(=O)(=O)c1ccccc1)NC[C@H]1NC(=O)[C@@H]2CN(CCO2)C(=O)CCSSCCNC(=O)[C@H](Cc2cccc3ccccc23)NC1=O [X-Cop-D-Dap-1-NaI + Acid 114]
17,-0.00533,O=C(NC[C@H]1NC(=O)[C@@H]2CN(CCO2)C(=O)CCSSCCNC(=O)[C@H](Cc2ccc3ccccc3c2)NC1=O)c1ccc(Cl)s1 [X-Cop-D-Dap-2-Nal + Acid 14]
18,0.00133,O=C(NC[C@H]1NC(=O)[C@@H]2CN(CCO2)C(=O)CCSSCCNC(=O)[C@H](Cc2ccc3ccccc3c2)NC1=O)c1ccc(Cl)cc1 [X-Cop-D-Dap-2-Nal + Acid 25]
19,0.00455,O=C(NCC1NC(=O)C2CN(CCO2)C(=O)CCSSCCNC(=O)C(Cc2ccc3ccccc3c2)NC1=O)c1ccc2ccccc2c1 [X-Cop-D-Dap-2-Nal + Acid 107]
20,0.035,O=C(C=Cc1ccc(OCc2ccccc2)cc1)NCC1NC(=O)C2CN(CCO2)C(=O)CCSSCCNC(=O)C(Cc2ccc3ccccc3c2)NC1=O [X-Cop-D-Dap-2-Nal + Acid 110]
21,0.00133,O=C(NC[C@H]1NC(=O)[C@@H]2CN(CCO2)C(=O)CCSSCCNC(=O)[C@H](Cc2ccc3ccccc3c2)NC1=O)c1cccc(Oc2ccccc2)c1 [X-Cop-D-Dap-2-Nal + Acid 111]
